According to patent US20230391842A1, “RETRO-INVERSO PEPTIDES” (Herantis Pharma OYJ, priority 2019, published 2023):
Positions of bridges follow the written chain, without caps; N, C: chain ends. Non-standard residues stand in square brackets, D forms with d. Residues, ends and D or L forms follow the SMILES beside them.

Tests used:
[1] = In vitro metabolic stability in human plasma; assay type: in vitro ADME; conditions: 1 μM, 37° C., up to 120 min
Method: Metabolic stability was studied using human plasma over the time period of 120 min, with initial test concentration of 1 μM. Samples were analysed using LC/QE-orbitrap-MS. Calculated half-life is based on compound disappearance in human plasma.
The incubation was terminated by acetonitrile. […] Propanthelin bromide 1 uM was used as a disappearance rate control. […] The in vitro half-life (t1/2) of is study compound is defined as: t1/2=ln2/k.

rat hepatocytes = test: In vitro metabolic stability in rat hepatocytes; conditions: 1 μM, 37° C., 0-60 min
human hepatocytes = test: In vitro metabolic stability in human hepatocytes; conditions: 1 μM, 37° C., 0-60 min
[2] = In vitro metabolic stability in rat plasma; assay type: in vitro ADME; conditions: 1 μM, 37° C., up to 120 min
Method: Metabolic stability of the retro-inverso and native control peptides was studied using rat plasma over the time period of 120 min, with initial test concentration of 1 μM. Samples were analysed using LC/QE-orbitrap-MS. Calculated half-life is based on compound disappearance in rat plasma.
The incubation was terminated by acetonitrile. […] Stock solutions was prepared using 50% DMSO, and the compounds were spiked 1/100 to incubation to have final DMSO content of 0.5%. […] For analysis of compounds 13-14 and 19-20 stock solutions were prepared with PBS, and samples were analyzed by UHPLC-ToF mass spectrometry. Enalapril 1 μM was used as a disappearance rate control.

[3] = target: nucleotide-binding domain of GRP78 (GRP78-NBD); test: Binding to GRP78-NBD Kd (μM)
Excerpt: Table printed on a drawing sheet, FIG. 5B
Head of the field: Binding to GRP78-NBD Kd (μM)
GRP78-NBD is shown in a to translucent surface model along with its cartoon trace. The Cys-Cys bond in compound 14 (SEQ ID NO: 14) is shown in sticks.
The binding affinities are obtained by microscale thermophoresis-based cell free assay.
GSK2606414 was used to inhibit PERK signaling and KIRA6 to inhibit IRE1alpha signaling. * p<0.05, ** p<0.01, *** p<0.001, **** p<0.0001 one-way ANOVA test with post-hoc Fisher's LSD test for pairwise comparison vs MPP+ negative control. #p<0.05, ##p<0.01, ###p<0.001, ####p<0.0001 one-way ANOVA test with post-hoc Fisher's LSD test for pairwise comparison between effect of compound alone and its combination with UPR signal inhibitor.
Where the first naming reader finds the target: head: Binding to GRP78-NBD Kd (μM)

[4] = tested on: dopaminergic TH-positive neurons injured with MPP+; test: Neuroprotective effect on dopaminergic TH-positive neurons injured with MPP+ (primary mesencephalic culture); assay type: cell-based, rat; conditions: MPP+ 4 μM, 48 h; stated for 'most cases'
Method: Neuroprotective effects of compounds 1-20 (SEQ ID NO:s 1-20, parent and retro-inverso) were tested in an in vitro model in which primary cultures of rat embryonic mesencephalic neurons were stressed with MPP+, the active metabolite of neurotoxin 1-methyl-4-phenyl-1,2,3,6-tetrahydropyridine (MPTP). MPP+ kills dopaminergic (TH-positive) neurons via a variety of toxic mechanisms, including mitochondrial dysfunction, generation of peroxynitrite, oxidative stress, ER stress and induction of apoptosis.
Rat dopaminergic neurons were cultured as described by Visanji et al., 2008. Briefly, the midbrains obtained from 15-day-old rat embryos (Janvier, France) were dissected, and the ventral portion of the mesencephalic flexure, a region of the developing brain rich in dopaminergic neurons, was used for the cell preparations. The midbrain cells were dissociated by trypsinization for 20 min at 37° C. […] The reaction was stopped by adding Dulbecco's modified Eagle's medium (DMEM) containing DNAase I grade II (0.5 mg/mL) and 10% of fetal calf serum (FCS). Cells were then mechanically dissociated by 3 passages through a 10 ml pipette. Cells were then centrifuged at 180×g for 10 min at +4° C. on a layer of BSA (3.5%) in L15 medium. The cell pellets was re-suspended in a defined culture serum-free medium consisting of Neurobasal (Invitrogen) supplemented with B27 (2%), L-glutamine (2 mM) and 2% of PS solution and 10 ng/ml of Brain-derived neurotrophic factor (BDNF) and 1 ng/mL of Glial-Derived Neurotrophic Factor (GDNF). […] The cells were seeded at a density of 40 000 cells/well in 96 well-plates (pre-coated with poly-L-lysine) and maintained in a humidified incubator at 37° C. in 5% CO2/95% air atmosphere. Half of the medium was changed every 2 days with fresh medium. On 96-wells plates, only 60 wells are used. To avoid any edge effect, the first and last lines and columns were not be used for culture and were filled with sterile water.
On day 6 of culture, CDNF or the compounds 1-20 (SEQ ID NO:s 1-20, parent and retro-inverso), were dissolved in culture medium and then pre-incubated with mesencephalic neurons for 4 hours before the MPP+ application. Four hours after the preincubation of the compounds, MPP+ was added to a final concentration of 4 μM, diluted in control medium still in presence of compounds for 48 h.
48 hours after intoxication, the cells were fixed by a solution of 4% paraformaldehyde in PBS, pH 7.3 for 20 min at room temperature. The cells were washed twice in PBS, and then permeabilized and non-specific sites were blocked with a solution of PBS containing 0.1% of saponin and 1% FCS for 15 min at room temperature. Next, the cells were incubated with (a) a monoclonal antibody anti-Tyrosine Hydroxylase (TH) produced in mouse at dilution of 1:1 0000 and with (b) a polyclonal antibody anti-alpha-synuclein (aSyn) antibody produced in rabbit at dilution of 1:400 in PBS containing 1% FCS, 0.1% saponin, for 2 h at room temperature.
48 hours after intoxication, the cell culture supernatant was removed, and the cells fixed by a solution of 4% paraformaldehyde in PBS, pH 7.3 for 20 min at room temperature. The cells were washed twice in PBS, and then permeabilized and non-specific sites were blocked with a solution of PBS containing 0.1% of saponin and 1% FCS for 15 min at room temperature. Then, the cells were incubated with a) a monoclonal Anti-Tyrosine Hydroxylase (TH) antibody produced in mouse at dilution of 1:10000 in PBS containing 1% FCS, 0.1% saponin, for 2 hours at room temperature, and b) a polyclonal anti-postsynaptic density protein-95 (PSD-95) antibody produced in rabbit at dilution of 1:200 in PBS containing 1% FCS, 0.1% saponin, for 2 h at room temperature. This antibody stains specifically synapses.
For each condition, pictures representing the whole well area were automatically acquired using ImageXpress (Molecular device) at 10× (20 pictures, for TH and a-syn) or at 40× magnification (60 pictures, for TH and PSD-95). […]

[5] = tested on: unfolded protein response (UPR) pathway signaling in TH-positive neurons injured with MPP+; test: Dependence of neuroprotection in MPP+-injured mesencephalic neurons on UPR signaling (PERK / IRE1alpha inhibitors); assay type: cell-based, rat
Method: CDNF and MANF protect cells from ER stress-induced cell dysfunction or cell death, such as apoptosis by modulating cellular responses to ER stress. […] Binding of compounds to GRP78-NBD was assessed in a cell-free binding assay using purified recombinant GRP78-NBD and synthesized peptides. As GRP78 also serves as a critical ligand of the three receptors of the unfolded protein response (UPR) pathway, IRE1[…], PERK and ATF6, the dependency of the compounds' neuroprotective effects on UPR signaling was also tested.
The neuronal cell culture, MPP+ intoxication, immunostaining and analysis of neuroprotective effects of compounds were performed as in Example 1. PERK inhibitor GSK2606414 (2 µM, Sigma) or IRE1alpha inhibitor KIRA6 (2 µM, Sigma) were added to is the culture 1 h before addition of the test compounds.

[6] = In vivo pharmacokinetics after intravenous administration to rats; conditions: rat, 5 mg/kg intravenous bolus injection, male Sprague-Dawley rats, plasma
Method: Test compounds were intravenously (i.v.) administered to male Spraque-Dawley rats (about six weeks old, n=3 per compound) at 5 mg/kg. Blood samples were collected from jugular vein through implanted in-dwelling catheters (250 μl blood) into labelled polypropylene tubes containing anticoagulant (heparin) at 2 min, 5 min, 15 min, 30 min, 1 h, 2 h and 4 h after compound administration and held on wet ice for a maximum of 30 minutes. The blood samples were centrifuged for plasma separation (4° C., 21100 G, 5 min). Tolbutamide 500 ng/ml with 10% TFA in acetonitrile or in MeCN was used as an internal standard solution. The standard samples were prepared into rat plasma by spiking the matrix into concentrations 2-10 000 ng/ml of the analyte, respectively, and otherwise treated as the samples. To 50 μl aliquots of sample plasma was added 200 μl of internal standard. Samples were mixed (150 rpm, 15 min) and centrifugated (3000 rpm, 15 min). The analytical method was optimized for reaction monitoring chromatographic (peak shape & retention) shifts and mass spectrometric properties (ionization efficiency, MS/MS detection). Supernatants were is analyzed by UHPLC-TOF mass spectrometry using electrospray ionization. […]

SMILES	stability in human plasma as compared to parent compound [1]	stability in rat hepatocytes as compared to parent compound (rat hepatocytes)	stability in human hepatocytes as compared to parent compound (human hepatocytes)	stability in rat plasma as compared to parent compound [2]	Kd [3] [µM]	potency of retro-inverso peptides relative to their parent compounds and to full-length CDNF protein [4]	neuroprotective effect in the presence of PERK inhibitor GSK2606414 ([5]; GSK2606414 added 1 h before test compound)	neuroprotective effect in the presence of IRE1alpha inhibitor KIRA6 ([5]; KIRA6 added 1 h before test compound)	AUC(0-inf) [6] [ng·h/mL]	MRT [6] [min]	Vd [6] [L/kg]	half-life [6] [min]	clearance ([6]; read-out: CI) [mL/min/kg]
C[C@H](O)[C@@H](NC(=O)[C@H]1CSSC[C@@H](NC(=O)[C@@H](C)NC(=O)[C@@H](CCC(=O)O)NC(=O)[C@@H](CCCCN)NC(=O)[C@H](N)CO)C(=O)NCC(=O)N[C@H](CCCCN)C(=O)N1)C(=O)N[C@H](CCC(=O)O)C(=O)NCC(=O)O [Compound 8, SKEACGKCTEG] (H-[dS][dK][dE][dA][dC]G[dK][dC][dT][dE]G-OH; disulfide 5-8; N-terminus and C-terminus assumed)	improved stability	significantly improved stability	significantly improved stability	significantly improved stability	–	–	–	–	–	–	–	–	–
C[C@H](O)[C@@H](NC(=O)[C@H]1CSSC[C@@H](NC(=O)[C@@H](C)NC(=O)[C@H](N)CCC(=O)O)C(=O)NCC(=O)N[C@H](CCCCN)C(=O)N1)C(=O)N[C@H](CCC(=O)O)C(=O)O [Compound 20, EACGKCTE]	–	significantly improved stability	–	significantly improved stability	3.4	comparable	abolished	abolished	18400	23.9	0.11	20.5	4.57
